Literature values in PubChem BioAssay AID1259409 (Chemical Carcinogenesis Research Information System (CCRIS), 2018).

System: rodent chemically induced tumor inhibition, incidence and multiplicity
Assay: CCRIS tumor inhibitor studies

In the case of Cl, the “tumour outcome (control, treated, inhibition, significance)” value (Carcinogen: 1,2-DIMETHYLHYDRAZINE, 540-73-8, Dose [Inhibitor]: 0, 5 G/L IN DRINKING WATER FOR DURATION OF STUDY BEGINNING 7 D PRIOR TO CARCINOGEN TREATMENT (STUDY DURATION: 8 MO), Route [Inhibitor]: ORAL, Species: RAT, Strain/Sex: BD6/MALE, Target Tissue: Type of Lesion: INTESTINE: TUMOR, Dose [Carcinogen]: 20 MG/KG BW 1/WK FOR 20 WK, Promoter: NONE USED) is listed as 100%, 100%, 0%, not significant, the “tumour outcome (control, treated, inhibition, significance)” value (Carcinogen: BRACKEN FERN, Dose [Inhibitor]: 20 MG/G DIET/D FOR 12 MO SIMULTANEOUS WITH CARCINOGEN (STUDY DURATION: 12 MO), Route [Inhibitor]: ORAL, Species: RAT, Strain/Sex: ALBINO/?, Target Tissue: Type of Lesion: INTESTINE: TUMOR, Dose [Carcinogen]: 0.33 G IN DIET/D FOR 12 MO, Promoter: NONE USED) is listed as 30/30 (100%), 16/23 (70%), 30%, p<0.01 and the “tumour outcome (control, treated, inhibition, significance)” value (Carcinogen: BRACKEN FERN, Dose [Inhibitor]: 20 MG/G DIET/D FOR 12 MO SIMULTANEOUS WITH CARCINOGEN (STUDY DURATION: 12 MO), Route [Inhibitor]: ORAL, Species: RAT, Strain/Sex: ALBINO, Target Tissue: Type of Lesion: URINARY BLADDER: TUMOR, Dose [Carcinogen]: 0.33 G IN DIET/D FOR 12 MO, Promoter: NONE USED) is listed as 22/30 (73%), 4/23 (17%), 77%, p<0.001. For the same compound, the “tumour outcome (control, treated, inhibition, significance)” value (Carcinogen: N-METHYL-N'-NITRO-N-NITROSOGUANIDINE, 70-25-7, Dose [Inhibitor]: 0, 1% IN DRINKING WATER BEGINNING 1 WK POST CARCINOGEN TREATMENT AND CONTINUING FOR STUDY DURATION (STUDY DURATION: 52 W, Route [Inhibitor]: ORAL, Species: RAT, Strain/Sex: SHR/MALE, Target Tissue: Type of Lesion: STOMACH: ADENOCARCINOMA, Dose [Carcinogen]: 40 ML OF A 25 MG/ML SOLUTION 1/2 D IN DRINKING WATER FOR 25 WK) was 65%, 20%, 69%, p<0.02, the “tumour outcome (control, treated, inhibition, significance)” value (Carcinogen: N-METHYL-N'-NITRO-N-NITROSOGUANIDINE, 70-25-7, Dose [Inhibitor]: 0, 1% IN DRINKING WATER BEGINNING 1 WK POST CARCINOGEN TREATMENT AND CONTINUING FOR STUDY DURATION (STUDY DURATION: 52 W, Route [Inhibitor]: ORAL, Species: RAT, Strain/Sex: WKR/MALE, Target Tissue: Type of Lesion: STOMACH: ADENOCARCINOMA, Dose [Carcinogen]: 40 ML OF A 25 MG/ML SOLUTION 1/2 D IN DRINKING WATER FOR 25 WK) was 25%, 20%, 20%, not calculated and the “tumour outcome (control, treated, inhibition, significance)” value (Carcinogen: N-METHYL-N'-NITRO-N-NITROSOGUANIDINE, 70-25-7, Dose [Inhibitor]: 0, 1% IN DRINKING WATER FOR 27 WK BEGINNING POST CARCINOGEN DOSE (STUDY DURATION: 52 WK), Route [Inhibitor]: ORAL, Species: RAT, Strain/Sex: WISTAR/MALE, Target Tissue: Type of Lesion: STOMACH: TUMOR, Dose [Carcinogen]: 25 UG/ML IN DRINKING WATER FOR 25 WK, Promoter: DEOXYCORTICOSTERONE ACETATE, 56-47-3) was 11/20 (55%), 3/18 (17%), 69%, p<0.05. For the same compound, the “tumour outcome (control, treated, inhibition, significance)” value (Carcinogen: N-METHYL-N'-NITRO-N-NITROSOGUANIDINE, 70-25-7, Dose [Inhibitor]: 0, 4% IN DIET FOR 25 WK BEGINNING 1 WK POST CARCINOGEN TREATMENT (STUDY DURATION: 52 WK), Route [Inhibitor]: ORAL, Species: RAT, Strain/Sex: WISTAR/MALE, Target Tissue: Type of Lesion: STOMACH: ADENOCARCINOMA, Dose [Carcinogen]: 25 UG/ML IN DRINKING WATER FOR 25 WK, Promoter: SODIUM CHLORIDE, 7647-14-5) was 17/19 (89%), 10/18 (56%), 37%, not significant and the “tumour outcome (control, treated, inhibition, significance)” value (Carcinogen: N-METHYL-N'-NITRO-N-NITROSOGUANIDINE, 70-25-7, Dose [Inhibitor]: 0, 8% IN DIET FOR 25 WK BEGINNING 1 WK POST CARCINOGEN TREATMENT (STUDY DURATION: 52 WK), Route [Inhibitor]: ORAL, Species: RAT, Strain/Sex: WISTAR/MALE, Target Tissue: Type of Lesion: STOMACH: ADENOCARCINOMA, Dose [Carcinogen]: 25 UG/ML IN DRINKING WATER FOR 25 WK, Promoter: SODIUM CHLORIDE, 7647-14-5) was 17/19 (89%), 5/19 (26%), 71%, p<0.01.

In the case of CCC(C)C(NC(=O)C(C)NC(=O)C(Cc1cnc[nH]1)NC(=O)C1CCCN1C(=O)CNC(=O)C(CC(C)C)NC(=O)C(CC(C)C)NC(=O)C(Cc1ccc(O)cc1)NC(=O)CNC(=O)C(C)NC(=O)C(CO)NC(=O)C(CC(N)=O)NC(=O)C(CC(C)C)NC(=O)C(NC(=O)C(Cc1c[nH]c2ccccc12)NC(=O)CN)C(C)O)C(=O)NC(CC(=O)O)C(=O)NC(CC(N)=O)C(=O)NC(Cc1c[nH]cn1)C(=O)NC(CCCNC(=N)N)C(=O)NC(CO)C(=O)NC(Cc1ccccc1)C(=O)NC(Cc1cnc[nH]1)C(=O)NC(CC(=O)O)C(=O)NC(CCCCN)C(=O)NC(Cc1ccc(O)cc1)C(=O)NCC(=O)NC(CC(C)C)C(=O)NC(C)C(N)=O (stereo not given), the “tumour outcome (control, treated, inhibition, significance)” value (Carcinogen: AZOXYMETHANE, 25843-45-2, Dose [Inhibitor]: 0, 4 UG/KG BW IN OLIVE OIL 1/2 D FOR DURATION OF STUDY (STUDY DURATION: 45 WK), Route [Inhibitor]: SUBCUTANEOUS, Species: RAT, Strain/Sex: WISTAR/MALE, Target Tissue: Type of Lesion: COLON: ADENOMA OR ADENOCARCINOMA, Dose [Carcinogen]: 7.4 MG/KG BW IN 0.9% SALINE 1/WK FOR 10 WK, Promoter: NONE USED) is listed as 15/19 (79%), 7/19 (37%), 53%, p<0.05, the “tumour outcome (control, treated, inhibition, significance)” value (Carcinogen: N-METHYL-N'-NITRO-N-NITROSOGUANIDINE, 70-25-7, Dose [Inhibitor]: 0, 2 UG/KG BW IN OLIVE OIL 1/2 WK FOR 26 WK BEGINNING POST CARCINOGEN TREATMENT (STUDY DURATION: 52 WK), Route [Inhibitor]: SUBCUTANEOUS, Species: RAT, Strain/Sex: WISTAR/MALE, Target Tissue: Type of Lesion: STOMACH: ADENOCARCINOMA, Dose [Carcinogen]: 50 UG/ML IN DRINKING WATER FOR 25 WK, Promoter: NONE USED) is listed as 10/20 (50%), 10/20 (50%), 0%, not significant and the “tumour outcome (control, treated, inhibition, significance)” value (Carcinogen: N-METHYL-N'-NITRO-N-NITROSOGUANIDINE, 70-25-7, Dose [Inhibitor]: 0, 4 UG/KG BW IN OLIVE OIL 1/2 WK FOR 26 WK BEGINNING POST CARCINOGEN TREATMENT (STUDY DURATION: 52 WK), Route [Inhibitor]: SUBCUTANEOUS, Species: RAT, Strain/Sex: WISTAR/MALE, Target Tissue: Type of Lesion: STOMACH: ADENOCARCINOMA, Dose [Carcinogen]: 50 UG/ML IN DRINKING WATER FOR 25 WK, Promoter: NONE USED) is listed as 10/20 (50%), 3/20 (15%), 70%, p<0.01.

In the case of CC(=O)[C@@H]1C[C@@H]2C[C@H]1[C@@H](N=C=S)C2, the “tumour outcome (control, treated, inhibition, significance)” value (Carcinogen: 7,12-DIMETHYLBENZ[A]ANTHRACENE, 57-97-6, Dose [Inhibitor]: 0, 75 UMOL/D IN 0.5 ML EMULPHOR EL-620 FOR 5 CONSECUTIVE DAYS BEGINNING AT 47 D OF AGE (STUDY DURATION: 155 D), Route [Inhibitor]: GAVAGE, Species: RAT, Strain/Sex: SPRAGUE-DAWLEY/FEMALE, Target Tissue: Type of Lesion: MAMMARY GLAND: TUMOR, Dose [Carcinogen]: 8 MG IN 1 ML SESAME OIL ONCE AT 50 D OF AGE, Promoter: NONE USED) is given as 17/25 (68%), 5/20 (25%), 63%, p<0.05 and the “tumour outcome (control, treated, inhibition, significance)” value (Carcinogen: 7,12-DIMETHYLBENZ[A]ANTHRACENE, 57-97-6, Dose [Inhibitor]: 0, 150 UMOL/D IN 0.5 ML EMULPHOR EL-620 FOR 5 CONSECUTIVE DAYS BEGINNING AT 47 D OF AGE (STUDY DURATION: 155 D), Route [Inhibitor]: GAVAGE, Species: RAT, Strain/Sex: SPRAGUE-DAWLEY/FEMALE, Target Tissue: Type of Lesion: MAMMARY GLAND: TUMOR, Dose [Carcinogen]: 8 MG IN 1 ML SESAME OIL ONCE AT 50 D OF AGE, Promoter: NONE USED) is given as 17/25 (68%), 5/20 (25%), 63%, p<0.05.

In the case of Oc1cc(O)cc(O)c1, the “tumour outcome (control, treated, inhibition, significance)” value (Carcinogen: BENZO[A]PYRENE, 50-32-8, Dose [Inhibitor]: 0.03 MMOL/G OF DIET DAILY STARTING 7 D BEFORE AND CONTINUING THROUGH 3 D AFTER CARCINOGEN TREATMENT FOLLOWED BY OBSERVAT, Route [Inhibitor]: ORAL, Species: MOUSE, Strain/Sex: ICR/FEMALE, Target Tissue: Type of Lesion: FORESTOMACH: NEOPLASM, Dose [Carcinogen]: 1 MG IN 0.2 ML CORN OIL 2/WK FOR 4 WK, Promoter: NONE USED) is listed as 100%, 83%, 17%, not significant.

For O=C(CCC(O)c1ccccc1)c1ccccc1 (stereo not given), the “tumour outcome (control, treated, inhibition, significance)” value (Carcinogen: 4-(METHYLNITROSAMINO)-1-(3-PYRIDYL)-1-BUTANONE, 64091-91-4, Dose [Inhibitor]: 0, 25 UMOL IN 0.1 ML CORN OIL ONCE 2 HR PRIOR TO CARCINOGEN DOSE (STUDY DURATION: 16 WK), Route [Inhibitor]: GAVAGE, Species: MOUSE, Strain/Sex: STRAIN-A/FEMALE, Target Tissue: Type of Lesion: LUNG: TUMOR, Dose [Carcinogen]: 10 UMOL IN 0.1 ML SALINE ONCE, Promoter: NONE USED) is given as 100%, 100%, 0%, not significant.
